Legend:
[1] = Diazepam plasma PK after single-dose SQ administration of AVF to dogs (Example 1); settings: mean; single-dose SQ approx. 1.9 mg/kg avizafone; NCA
[2] = Diazepam plasma PK after single-dose IM administration of more concentrated AVF to dogs, Study 2 (Example 2); settings: for AUClast/D (diazepam) / Cmax/D (diazepam): N=6, 0.0952 mol/L AVF, NCA
beagle dogs = experiment: Time to onset of sedation after IM administration of AVF in a canine model; format: in vivo
[3] = Diazepam plasma PK after single-dose IM administration of AVF to dogs, Study 1 (Example 1)
[4] = geometric mean, N=6, Study 1, IM, NCA
[5] = mean, N=6, Study 1, IM, NCA, Table 5
[6] = pooled without and with niacin, IM vs SQ

## Avizafone
[1]
  Cmax/D (diazepam): 264 (ng/mL)/(mg/kg)
  V/F (diazepam): 2.432 L/kg
[2]; 3-fold higher injection solution concentration, 3-fold smaller injection volume, IM
  shorter Tmax in Study 2 than in Study 1: 3 fold
[2]; IM, Study 2 vs Study 1, compartment modeling
  mean K01 higher in Study 2 compared to Study 1: 4.2 fold
[2]; Study 2, IM, compartment modeling
  mean K01 (input rate constant) for DZP: 0.9501 min⁻¹
[2]; geometric mean, Study 2, IM
  AUClast/D (diazepam): 22101 (min*ng/mL)/(mg/kg)
  Cmax/D (diazepam): 644 (ng/mL)/(mg/kg)
[2]; mean, Study 2, IM
  AUClast/D (diazepam): 22176 (min*ng/mL)/(mg/kg)
  Cmax/D (diazepam): 656 (ng/mL)/(mg/kg)
[2]; median, Study 2, IM
  AUClast/D (diazepam): 21903 (min*ng/mL)/(mg/kg)
  Cmax/D (diazepam): 605 (ng/mL)/(mg/kg)
Beagle dogs; Study 1, IM, less concentrated AVF formulations (mean 0.0300 mol/L)
  median time for onset of sedation: greater than 45 minutes
Beagle dogs; Study 2, IM, more concentrated formulation (0.0952 mol/L)
  median time for onset of sedation: approximately 10 minutes
[3]; Study 1, IM, compartment modeling
  mean K01 (input rate constant) for DZP: 0.2289 min⁻¹
[3]; [4]
  AUClast/D (diazepam): 22243 (min*ng/mL)/(mg/kg)
  Cmax/D (diazepam): 650 (ng/mL)/(mg/kg)
[3]; [5]
  AUClast/D (diazepam): 22637 (min*ng/mL)/(mg/kg)
  Cmax/D (diazepam): 702 (ng/mL)/(mg/kg)
[3]; mean, single-dose IM approx. 1.6 to 1.8 mg/kg avizafone, NCA
  V/F (diazepam): 1.435 L/kg
[3]; mean, single-dose IM approx. 1.6 to 1.8 mg/kg avizafone, NCA, Table 2
  Cmax/D (diazepam): 397 (ng/mL)/(mg/kg)
[3]; median, N=6, Study 1, IM, NCA
  AUClast/D (diazepam): 22225 (min*ng/mL)/(mg/kg)
  Cmax/D (diazepam): 574 (ng/mL)/(mg/kg)
[3]; [6]
  DZP AUClast/D higher following IM than following SQ administration: 1.43 fold
  DZP Cmax/D higher following IM than following SQ administration: 1.50 fold

— patent US20220225159A1, “PARENTERAL DELIVERY OF AVIZAFONE” (Sollievo Pharmaceuticals, Inc, priority 2020, published 2022)
